The target in this experiment is Prostate-specific antigen (Homo sapiens) (UniProt P07288). The experiment is described as follows: Concentration required for inhibition of 50% of the cleavage of para-nitroanilide from MeO-Suc-Arg-Pro-Tyr-pNA.HCl by Prostate specific antigen PSA.

Drawing on BindingDB's records for doi:10.1016/S0960-894X(97)00285-0 (1997), this text covers IC50 for 2 molecules.

pIC50: −log10 of the molar value. Where a name gives a salt, the structure may show the parent alone. A value given as a limit tells only on which side of the number the result lay.

Sequence of Prostate-specific antigen (Homo sapiens) (P07288 whole entry, looked up): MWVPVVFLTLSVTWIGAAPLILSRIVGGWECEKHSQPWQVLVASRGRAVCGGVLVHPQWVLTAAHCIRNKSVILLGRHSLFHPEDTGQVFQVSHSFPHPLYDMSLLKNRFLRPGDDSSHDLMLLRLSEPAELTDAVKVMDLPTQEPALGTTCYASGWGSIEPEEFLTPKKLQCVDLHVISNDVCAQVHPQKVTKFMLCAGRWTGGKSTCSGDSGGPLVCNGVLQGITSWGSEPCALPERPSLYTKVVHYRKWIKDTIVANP

With `O=C(O)c1ccc(COC(=O)[C@@H]2[C@H](Cc3ccccc3)C(=O)N2C(=O)Cc2cccc(C(=O)O)c2)cc1` [3-Benzyl-1-[2-(3-carboxy-phenyl)-acetyl]-4-oxo-azetidine-2-carboxylic acid 4-carboxy-benzyl ester], the pIC50 – broadly, −log10 of the IC50, conventionally taken in molar units – is below 4.52.
In turn, `NCc1ccc(COC(=O)[C@@H]2[C@H](Cc3ccccc3)C(=O)N2C(=O)Cc2cccc(C(=O)O)c2)cc1` [(2S,3S)-3-Benzyl-1-[2-(3-carboxy-phenyl)-acetyl]-4-oxo-azetidine-2-carboxylic acid 4-aminomethyl-benzyl ester; TFA] had a pIC50 of 5.87.
